Entries after “also recorded” stand apart in the source; their conditions may differ. Peptide text beside a SMILES is read from it. * marks the point of attachment. FITC = O=C1OC2(c3ccc(O)cc3Oc3cc(O)ccc32)c2ccc(NC(=S)*)cc21
How the values were obtained:
cleaved caspase-3 = experiment: Cleaved caspase-3 Western blot in Aβ-treated cortical neurons; type: cell-based, rat; conditions: Aβ 6 h; P5 infection or roscovitine
Protocol: (§1) Western blot analysis was performed as previously described (Zheng et al., Eur J Biochem 269(18), 4427-4434, 2002). In brief, an equal amount of total protein (20 μg/lane) was resolved on a 4-20% SDS polyacrylamide gel and blotted onto a polyvinylidene difluoride membrane. This membrane was incubated in blocking buffer containing 20 mM Tris-HCl (pH 7.4), 150 mM NaCl, and 0.1% (vol/vol) Tween 20 (TTBS) plus 5% dry milk (w/v) for 1 hour at room temperature followed by incubation overnight at 4° C. in primary antibodies (see antibodies). The membranes were then washed four times in TTBS (5 minutes/each) followed by incubation in secondary antibody (goat-antimouse or goat anti-rabbit IgG (H+L)-horseradish peroxidase (HRP) conjugate at a dilution of 1:3000) for 1 hour at room temperature. Western blots were analyzed using the Amersham Enhanced Chemiluminescence (ECL) kit following the manufacturer's instructions (GE Healthcare, Piscataway, N.J.).
To determine whether P5 inhibited neuronal apoptosis induced by Aβ, primary cortical neurons (5 days in culture (DIC)) were transfected with P5-GFP using Lipofectamine 2000. After 24 hours, cells were exposed to Aβ for 6 hours. The neurons were fixed and subjected to TUNEL staining, while P5 was visualized by (green fluorescent protein) GFP. […] The data are quantified in FIG. 5B. […] The data are quantified in FIG. 5D.

tau phosphorylation = experiment: Aβ-induced tau phosphorylation in cortical neurons, Western blot; type: cell-based, rat; conditions: Aβ 6 h; P5 infection or roscovitine
Protocol: Primary cultures of rat cortical neurons were prepared from E-18 rat fetuses as described previously (Zheng et al., J Biol Chem 278(26), 24026-24032, 2003). After 7 days, cells were infected independently or co-infected with empty vector (EV), the constructs of P5, P25, P35, wild-type Cdk5 and dominant negative Cdk5 (changing Lys33 to Thr33) using the Adenoviral vector (pAdTrack-CMV) packaging system as described above. […] The cells were fixed for immunocytochemistry analyses (ICC) or lysed with lysis buffer for immunoprecipitation and Western blot analyses. Cortical neuron cultures were prepared and plated on the cover slips as described. Human embryo kidney cells (HEK293) were grown as described previously (Zheng et al., Eur J Biochem 269(18), 4427-4434, 2002). In these studies HEK293 cells on day 1, or neurons on day 5, were transfected with or without Myc-P5-GFP using Lipofectamine 2000 following the manufacturer's instructions.
as §1
Amyloid plaques and neurofibrillary tangles, pathological hallmarks of several neurodegenerative disorders, are linked to deregulated Cdk5 and neuronal death. According to one model, β amyloid, being toxic, may evoke abnormal calcium influx into neurons which activates calpains. […] Hyperactivation of Cdk5, leads to the aberrant phosphorylation of tau and neurofilaments in a number of neurodegenerative diseases including AD and ALS. For example, primary cortical neurons, when treated with Aβ1-42 are induced to form Cdk5/P25 complexes, hyperactive Cdk5 activity, hyperphosphorylation of tau, and neuronal apoptosis. To determine whether P5 will inhibit endogenous tau phosphorylation induced by Aβ treatment in cortical neurons, 7 day old cortical neurons, infected with empty vector (EV) or with P5 were treated with Aβ for 6 hours, lysed and prepared for Cdk5 immunoprecipitation and kinase assay. Aβ treatment causes an approximate 3-fold increase in endogenous Cdk5 activity as visualized by histone H1 phosphorylation (FIG. 4A, panel 5, lane 2; FIG. 4B).
; FIG. 4D). […] Tau antibodies p-Ser404, PHF antibody AT180 (recognizes p-Thr231) and p-Ser422 antibodies were used to observe whether P5 affects other tau phosphorylation residues (FIGS. 4E, 4F). […]. Tau 5 recognizes total tau, nonphosphorylated as well as phosphorylated.

[1] = Toxicity of ip TFP5 in mice; type: in vivo, mouse; conditions: ip TFP5 (0.2 mM; or 10 weeks in three AD mice)
Cdk5/P25 [2] = molecular target: T1, Cdk5/P25 (Homo sapiens, UniProt Q00535); conditions: earlier studies; cited from earlier work
T1 sequence (Q00535 whole entry, species assumed): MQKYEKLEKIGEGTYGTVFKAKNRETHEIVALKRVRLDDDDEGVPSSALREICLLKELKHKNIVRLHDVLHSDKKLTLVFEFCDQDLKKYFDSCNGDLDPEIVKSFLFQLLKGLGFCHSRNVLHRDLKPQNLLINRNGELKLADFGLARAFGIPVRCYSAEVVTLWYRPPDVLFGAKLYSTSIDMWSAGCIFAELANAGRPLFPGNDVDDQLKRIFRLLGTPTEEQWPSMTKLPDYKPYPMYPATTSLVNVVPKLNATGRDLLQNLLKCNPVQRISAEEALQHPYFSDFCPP

Cdk5/P25 [3] = molecular target: T1, Cdk5/P25; conditions: earlier studies, cited from earlier work
Cdk5/P25 [4] = molecular target: T1, Cdk5/P25; experiment: In vitro kinase (pad) assay of active Cdk5/P25 with histone H1 as substrate; type: biochemical; conditions: in vitro kinase assay, histone H1, FIG. 1
Protocol: Kinase assays were performed as previously described (Veeranna, et al., J Neurosci 18(11), 4008-4021, 1998). Briefly, 7 days in culture (7 DIC) primary rat cortical neurons were infected with P25, P35, Cdk5 wild-type, dominant negative-Cdk5 and P5 using the lentiviral gene delivery as described earlier. Cdk5 was immunoprecipitated using the polyclonal C8 antibody overnight at 4° C. and immunoglobulin isolated using Protein A sepharose beads for 2 hours at 4° C. Immunoprecipitates were washed three times with lysis buffer and then once with 1× kinase buffer containing 20 mM Tris-Cl pH 7.4, 1 mM EDTA, 1 mM EGTA, 10 mM MgCl2, 10 mM sodium fluoride and 1 mM sodium orthovanadate. Endogenous Cdks were immunoprecipitated from HEK 293 cells using their respective antibodies and treated as above. Kinase assays were performed in the same buffer containing 1 mM DTT, 0.1 mM ATP and 0.185 MBq [γ-32P] ATP with 20 μg of histone H1 as the substrate. Phosphorylation was performed in a final volume of […] incubated at 30° C. for 60 minutes, stopped by the addition of 10% SDS sample buffer and heating at 95° C. for 5 minutes. Samples were separated by SDS-PAGE, gels were stained with Coomassie, destained, dried and exposed to autoradiography. In pad assays, 25 μl aliquots of the incubation mixture were placed on a Whatman p80 paper square, washed and dried and placed in a scintillation vial for counting.
These are GST-P1 (E211-A277 of SEQ ID NO: 16), 67 amino acid residues; GST-P2 (M237-A277), 41 residues; GST-P3 (E221-L267 of SEQ ID NO: 16), 47 residues; GST-P4 (E221-L249 of SEQ ID NO: 16), 29 residues and GST-P5 (K254-A277 of SEQ ID NO: 16) 24 residues. Each was incubated with active Cdk5/P25 in a kinase assay in vitro. […] FIG. 10 provides a comparison of P5 and CIP, relative to P35.
In a dose-dependent kinase assay the effective inhibitory concentration of P5 for both the Cdk5/P25 and Cdk5/P35 complexes was evaluated. His-P5 peptide was added at different concentrations to the in vitro assay containing 100 μM [γ32-P] ATP and histone H1. Inhibition increased progressively with increasing P5 concentration in both complexes (Compare FIGS. 2A, 2B with 2C, 2D).
P5, a 24 amino acid peptide derived from Cdk5 regulator p35, was modified by conjugating it with TAT PTD at the C-terminal end and with FITC (using a GGG linker) at the N-terminus to produce a fluorescent (FITC-labeled) TFP5 (SEQ ID NO: 2) peptide. In a dose-dependent kinase assay the effective inhibitory concentration of TFP5 for both the Cdk5/P25 and Cdk5/P35 complexes was evaluated. His-P5 peptide was added at different concentrations to the in vitro assay containing 100 μM [γ32-P] ATP and histone H1. […] Data represent means of four independent experiments with error bars representing SEM (*p≦0.05, **p≦0.001).

Compound: CC[C@H](CO)Nc1nc(NCc2ccccc2)c2ncn(C(C)C)c2n1 [roscovitine, reference compound]
- Cleaved caspase-3 expression (cleaved caspase-3): reduced levels of cleaved caspase-3 comparable to that seen with P5 infection
- Aβ-induced tau phosphorylation at Ser422 (tau phosphorylation): significantly inhibits tau phosphorylation at Ser422 site
- Aβ-induced tau phosphorylation detected by AT8 and p-Ser199/202 antibodies (tau phosphorylation): baseline levels of tau phosphorylation; also recorded: significantly inhibited

Compound: CC[C@H](C)[C@H](NC(=O)[C@H](CCC(N)=O)NC(=O)[C@H](CC(C)C)NC(=O)[C@H](CCSC)NC(=O)[C@H](CCCCN)NC(=O)[C@H](CO)NC(=O)[C@H](CO)NC(=O)[C@H](CCSC)NC(=O)[C@H](CC(C)C)NC(=O)[C@H](CC(N)=O)NC(=O)[C@@H](NC(=O)[C@@H](NC(=O)[C@H](CO)NC(=O)[C@H](CC(C)C)NC(=O)[C@H](CS)NC(=O)[C@H](CCCNC(=N)N)NC(=O)[C@H](CC(=O)O)NC(=O)[C@H](Cc1c[nH]c2ccccc12)NC(=O)[C@H](Cc1ccccc1)NC(=O)[C@H](C)NC(=O)[C@H](CCC(=O)O)NC(=O)[C@H](CCCCN)NC(=O)CNC(=O)CNC(=O)CNC(=S)Nc1ccc2c(c1)C(=O)OC21c2ccc(O)cc2Oc2cc(O)ccc21)C(C)C)[C@@H](C)CC)C(=O)N[C@@H](CC(N)=O)C(=O)N[C@@H](C)C(=O)N[C@@H](Cc1ccc(O)cc1)C(=O)N[C@@H](C)C(=O)N[C@@H](CCCNC(=N)N)C(=O)N[C@@H](C)C(=O)N[C@@H](C)C(=O)N[C@@H](CCCNC(=N)N)C(=O)N[C@@H](CCCNC(=N)N)C(=O)N[C@@H](C)C(=O)N[C@@H](C)C(=O)N[C@@H](CCCNC(=N)N)C(=O)N[C@@H](CCCNC(=N)N)C(=O)O [TFP5] ({FITC}-GGGKEAFWDRCLSVINLMSSKMLQINAYARAARRAARR-OH)
- Toxicity in vivo [1]: without any toxicity; also recorded: without resulting in cell death; also recorded: no toxic effects were observed

Compound: CIP: 125-amino acid truncated peptide from P35 (residues 154-279 of SEQ ID NO: 16), inhibitor of Cdk5/P25
- Inhibition of Cdk5/P25 activity by CIP (Cdk5/P25 [2]): highly effective and specific inhibitor of Cdk5/P25 activity
- Tau hyperphosphorylation (Cdk5/P25 [3]): reduces tau hyperphosphorylation
- Apoptosis induced by Cdk5/P25 (Cdk5/P25 [3]; transfected HEK cells and neurons): protects transfected HEK cells and neurons from apoptosis

Compound: P3: 47 residue peptide derived from CIP, E221-L267 of SEQ ID NO: 16 (P35)
- Inhibition of Cdk5/P25 activity, comparison among peptides and CIP (Cdk5/P25 [4]): more effective inhibitors of Cdk5/P25 activity than CIP
